# Target: T1, AaeLOX4 (Cyclocybe aegerita, UniProt A0A4D6T4S4)
# T1 construct: gene lox4; codon-optimized gene in pET28a, E. coli BL21(DE3) Gold; HisTrap and gel filtration, tag cleavage not mentioned; predicted 79 kDa
# T1 sequence (A0A4D6T4S4 1-710): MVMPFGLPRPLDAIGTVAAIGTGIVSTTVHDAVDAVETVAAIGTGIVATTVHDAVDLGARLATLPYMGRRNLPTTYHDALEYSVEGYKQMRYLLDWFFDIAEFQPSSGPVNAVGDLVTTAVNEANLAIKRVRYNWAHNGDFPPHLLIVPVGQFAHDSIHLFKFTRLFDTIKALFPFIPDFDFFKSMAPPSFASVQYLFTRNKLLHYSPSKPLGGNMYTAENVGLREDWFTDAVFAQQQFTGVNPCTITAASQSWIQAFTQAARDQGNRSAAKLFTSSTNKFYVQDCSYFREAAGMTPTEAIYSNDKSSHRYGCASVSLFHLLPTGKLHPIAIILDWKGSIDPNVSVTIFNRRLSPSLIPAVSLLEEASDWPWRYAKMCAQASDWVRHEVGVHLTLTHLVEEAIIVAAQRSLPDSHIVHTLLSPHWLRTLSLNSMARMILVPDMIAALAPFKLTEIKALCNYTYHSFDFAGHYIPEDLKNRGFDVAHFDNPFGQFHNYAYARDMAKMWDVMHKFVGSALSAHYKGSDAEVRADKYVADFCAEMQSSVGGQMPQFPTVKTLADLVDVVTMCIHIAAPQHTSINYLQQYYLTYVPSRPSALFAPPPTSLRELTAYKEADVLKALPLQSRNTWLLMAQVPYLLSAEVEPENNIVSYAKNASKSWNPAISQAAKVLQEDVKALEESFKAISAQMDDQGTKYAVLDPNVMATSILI
# Test: conjugated diene formation at […] nm; Lineweaver-Burk
# Format: biochemical
# Details: 50 mM phosphate pH 7.5, 25 °C; substrate dispersed with Tween 20; 0.025-2 mM
row,SMILES,Km
1,CCCCC/C=C\C/C=C\CCCCCCCC(=O)O [linoleic acid],295 µM
2,CC/C=C\C/C=C\C/C=C\CCCCCCCC(=O)O [linolenic acid],634 µM
